Experimental data published in patent publication US6346260B1, “Microbicidal active ingredients” (Ciba Specialty Chemicals Corporation, priority 1999, dated 2002).
Converted amounts (≈) assume the structure as drawn.

Tests used:
Assay type in all cases: cell-based
[1] = test system: Aspergillus niger ATCC 6275; test: MIC in microtitre plates, Aspergillus niger; settings: ATCC6275, 120 h; Table 2; Aspergillus niger ATCC 6275; 5 days at 28° C.; ≦20% growth; read-out: MIC AN
Protocol: (§1) Determination of Antimicrobial Activity in Accordance with the Microtitre Plate Method Determination of the Minimum Inhibitory Concentration (MIC value) in Microtitre Plates Mycological slant agar for the preculture of moulds. Aspergillus niger ATCC 6275 The test substances are predissolved in dimethyl sulfoxide (DMSO) and tested in a dilution series of 1:2. Bacteria and yeast are cultured overnight in CASO bouillon, the mould on mycological slant agar and rinsed off with 10 ml of 0.85% sodium chloride solution (+0.1% TritonX-100). All test organisms are adjusted to an organism count of 1-5*10^6 CFU/ml with 0.85% sodium chloride solution. The test substances are prepipetted into microtitre plates in an amount of 8 μl per well. Previously diluted test organism suspensions are diluted 1:100 in CASO bouillon (bacteria and yeast) and Sabouraud 2% glucose bouillon (mould) and added to the test substances in an amount of 192 μl per well. The test batches are incubated for 48 hours at 37° C. (bacteria and yeast) or for 5 days at 28° C. (mould). After incubation, the growth is determined by reference to the turbidity of the test batches (optical density) at 620 nm in a microplate reader. The minimum inhibitory concentration (MIC value) is the concentration of substance at which (compared with the growth of the control) an appreciable inhibition of the growth (≦20% growth) of the test organisms is ascertained. One microtitre plate is used for each test organism and substance concentration. All substances are tested in duplicate.

[2] = test system: Staphylococcus hominis DSM 20368; test: MIC in microtitre plates, Staphylococcus hominis; settings: DSM20368, Table 2, 48 hours at 37° C., ≦20% growth
Protocol: as §1, with “casein-soybean flour-peptone bouillon” for “Mycological slant agar”, “preparation” for “preculture”, “the precultures of the test bacteria and yeast. Staphylococcus hominis DSM 20328” for “moulds. Aspergillus niger ATCC 6275”

[3] = test system: Escherichia coli NCTC 8196; test: MIC in microtitre plates, Escherichia coli; settings: NCTC8196; Table 2; Escherichia coli NCTC 8196; 48 hours at 37° C.; ≦20% growth; read-out: MIC EC
Protocol: as §1, with “casein-soybean flour-peptone bouillon” for “Mycological slant agar”, “preparation” for “preculture”, “the precultures of the test bacteria and yeast. Escherichia coli NCTC 8196” for “moulds. Aspergillus niger ATCC 6275”

[4] = test system: Pseudomonas aeruginosa CIP A-22; test: MIC in microtitre plates, Pseudomonas aeruginosa; settings: CIPA22; Table 2; Pseudomonas aeruginosa CIP-A 22; 48 hours at 37° C.; ≦20% growth; read-out: MIC PA
Protocol: as §1, with “casein-soybean flour-peptone bouillon” for “Mycological slant agar”, “preparation” for “preculture”, “the precultures of the test bacteria and yeast. Pseudomonas aeruginosa CIP A-22” for “moulds. Aspergillus niger ATCC 6275”

[5] = test system: Candida albicans ATCC 10231; test: MIC in microtitre plates, Candida albicans; settings: ATCC10231; Table 2; Candida albicans ATCC 10231; 48 hours at 37° C.; ≦20% growth; read-out: MIC CA
Protocol: as §1, with “casein-soybean flour-peptone bouillon” for “Mycological slant agar”, “preparation” for “preculture”, “the precultures of the test bacteria and yeast. Candida albicans” for “moulds. Aspergillus niger”, “10231” for “6275”

| SMILES | MIC [1] [µg/mL] | MIC [2] [µg/mL] | MIC [3] [µg/mL] | MIC [4] [µg/mL] | MIC [5] [µg/mL] |
| --- | --- | --- | --- | --- | --- |
| COc1ccccc1C(=O)CC(=O)c1ccc(O)cc1 [(105)] | > 120 | > 120 | > 120 | > 120 | > 120 |
| Cc1ccccc1C(=O)CC(=O)c1ccc(O)cc1 [(106)] | > 120 | > 120 | > 120 | > 120 | > 120 |
| COc1ccc(C(=O)CC(=O)c2ccc(O)cc2)cc1OC [(107)] | 120 (≈ 400 µM) | > 120 | 120 (≈ 400 µM) | > 120 | > 120 |
| O=C(CC(=O)c1ccc(O)cc1)c1ccccc1 [(111)] | > 120 | > 120 | > 120 | > 120 | > 120 |
| Cc1cc(O)c(C(=O)CC(=O)c2ccccc2)cc1Cl [(113)] | > 120 | > 120 | > 120 | > 120 | > 120 |
| O=C(CC(=O)c1cc(Br)ccc1O)c1ccccc1 [(114)] | > 120 | > 120 | > 120 | > 120 | > 120 |

Next, values leading:

| MIC [1] [µg/mL] | MIC [2] [µg/mL] | MIC [3] [µg/mL] | MIC [4] [µg/mL] | MIC [5] [µg/mL] | SMILES |
| --- | --- | --- | --- | --- | --- |
| > 120 | > 120 | > 120 | > 120 | > 120 | O=C(CC(=O)c1cccs1)c1ccc(O)cc1 [(103)] |
| > 120 | > 120 | > 120 | > 120 | > 120 | COc1cc(C(=O)CC(=O)c2ccc(O)cc2)cc(OC)c1OC [(108)] |
| > 120 | > 120 | > 120 | > 120 | > 120 | COC(=O)c1cccc(C(=O)CC(=O)c2ccc(O)cc2)c1 [(109)] |
| 60 (≈ 195 µM) | > 120 | 60 (≈ 195 µM) | > 120 | > 120 | O=C(CC(=O)c1cccc(C(F)(F)F)c1)c1ccc(O)cc1 [(110)] |
| > 120 | > 120 | > 120 | > 120 | > 120 | Cc1ccc(O)c(C(=O)CC(=O)c2ccccc2)c1 [(112)] |
| > 120 | > 120 | > 120 | > 120 | > 120 | O=C(CC(=O)c1ccccc1O)c1ccccc1 [(115)] |
